The numbers were not newly measured in patent US20190210972A1, “METHODS OF RESOLVING RACEMIC MIXTURE TO OBTAIN (-)-HUPERZINE A” (AMPHASTAR NANJING PHARMACEUTICALS INC., priority 2014, published 2019), which cites them from elsewhere.

The data set relates to patients with Alzheimer's disease. The note with it: double-blind, placebo-controlled.

As to `C/C=C1\C2C=C(C)C[C@]1(N)c1ccc(=O)[nH]c1C2` (single isomer, unassigned; (-)) [(−)-Huperzine A], the “cognitive function and quality of life of trial participants” value is on record as “Significant improvements”.
